Measured values published in patent US20080033008A1, “COMPOSITIONS AND METHODS FOR TREATING, CONTROLLING, REDUCING, OR AMELIORATING INFECTIONS AND SEQUELAE THEREOF” (priority 2006, published 2008).
Values joined by “and” are separate entries in the source; they are usually repeats but may differ in a detail not shown here. Equal entries are not always repeated. “Also recorded” adds a separate entry of the source.

How the values were obtained:
[1] = tested on: neovascularization and angiogenesis; conditions: X. Xin et al., J. Biol. Chem. 274:9116-9121 (1999); cited from earlier work
[2] = tested on: Myeloperoxidase (MPO); assay: Myeloperoxidase (MPO) activity in iris-ciliary body, rabbit paracentesis model; type: in vivo; conditions: iris-ciliary body samples collected after the second paracentesis, raw data per eye (DX/SX)
Protocol: 3.9 g of NaH2PO4 2H2O were dissolved in a volumetric flask to 500 ml with water. The pH was adjusted to pH=6 with 3N NaOH.
0.5 g of hexa-decyl-trimethyl-ammonium bromide was dissolved in 100 ml phosphate buffer.
The solution was prepared freshly. Ten microliters of H2O2 (30 wt. %) were diluted to 1 ml with water (solution A). 7.5 mg o-dianisidine 2HCl were dissolved in 45 ml of phosphate buffer and 75 μl of solution A were added.
(§1) Each rabbit was placed in a restraint device and tagged with the alphanumeric code. The formulations were instilled (50 μl) into the conjunctival sac of both eyes 180, 120, 90 and 30 min before the first paracentesis; then 15, 30, 90 min after the first paracentesis. […]
The activity of MPO was measured as previously described by Williams et al. The iris-ciliary bodies were carefully dried, weighed and immersed in 1 ml of hexa-decyl-trimethyl-ammonium bromide solution. […] The change in absorbance at 460 nm was continuously monitored for 5 min by a spectrophotometer (UV/Vis Spectrometer Lambda EZ 201; Perkin Elmer). The slope of the line (Δ/min) was determined for each sample and used to calculate the number of units of MPO in the tissue as follows:
Values were expressed as units of MPO/g of tissue.

[3] = Rabbit paracentesis model of ocular inflammation, overall conclusions; type: in vivo; conditions: 0.1%, 0.5% and 1% topical formulations; preliminary conclusions; listed as BOL-303242-X
Excerpt: Inflammatory processes are multidimensional in origin, and are characterized by complex cellular and molecular events involving numerous components all of which have not been identified. Prostaglandins are among these mediators and play an important role in certain forms of ocular inflammation. Paracentesis of the anterior chamber in the rabbit eye induces inflammatory reaction due to the disruption of the blood-aqueous barrier (“BAB”), which is mediated, at least in part, by prostaglandin E2 [References 1-3 below]. Intraocular or topical administration of PGE2 disrupts the BAB. [Reference 4, below] The treatment schedule adopted in this study was similar to the clinical NSAIDs (Ocufen) treatment schedule used by surgeons for patients before cataract surgery.
as §1
Pupillary diameter, PGE2, protein, PMN, and MPO were expressed as mean ±SEM. […] Clinical score was expressed as % of eyes and the statistical analysis was performed using Kruskal-Wallis followed by a Dunn post hoc test. […]

[4] = Clinical evaluation by slit lamp (clinical score), rabbit paracentesis model; type: in vivo
Protocol: (§2) Each rabbit was placed in a restraint device and tagged with the alphanumeric code. The formulations were instilled (50 μl) into the conjunctival sac of both eyes 180, 120, 90 and 30 min before the first paracentesis; then 15, 30, 90 min after the first paracentesis. To perform the first paracentesis the animals were anaesthetized by intraveneous injection of 5 mg/kg Zoletil® (Virbac; 2.5 mg/kg tiletamine HCl and 2.5 mg/kg zolazepam HCl) and one drop of local anesthetic (Novesina®, Novartis) was administered to the eye. Anterior chamber paracentesis was performed with a 26 G needle attached to a tuberculin syringe; the needle was introduced into the anterior chamber through the cornea, taking care not to damage the tissues. Two hours after the first paracentesis, the animals were sacrificed with 0.4 ml Tanax® (Intervet International B.V.) and the second paracentesis was performed. About 100 μl of aqueous humor were removed at the second paracentesis. Aqueous humor was immediately split in four aliquots and stored at −80° C. until analysis. Then both eyes were enucleated and the iris-ciliary body was carefully excised, placed in polypropylene tubes, and stored at −80° C. until analysis.
The clinical evaluation of both eyes was performed by a slit lamp (4179-T; Sbisa, Italy) at 180 min and 5 min before the first paracentesis and 5 min before the second paracentesis. The clinical score was assigned according to the following scheme:
1=discrete dilatation of iris and conjunctival vessels
2=moderate dilatation of iris and conjunctival vessels
3=intense iridal hyperemia with flare in the anterior chamber
4=intense iridal hyperemia with flare in the anterior chamber and presence of fibrinous exudates.

[5] = Pupillary diameter measurement, rabbit paracentesis model; type: in vivo; conditions: raw data per eye; for Diameter (mm) T2: −5 min: 5 min before the first paracentesis; for Diameter (mm) T3: +115 min: 5 min before the second paracentesis; for Diameter (mm) T1: −180 min: −180 min (basal)
Protocol: as §2
The pupillary diameter of both eyes was measured with a Castroviejo caliper 180 min and 5 min before the first paracentesis and 5 min before the second paracentesis.

[6] = Very preliminary data (not shown) on side effects of corticosteroids

Compound | Clinical score expressed as percentage of eyes, Score (%) 3 ([4]; 0.1% topical, +115 min) | Clinical score expressed as percentage of eyes, Score (%) 0 ([4]; 0.1% topical, −5 min) | Clinical score expressed as percentage of eyes, Score (%) 0 ([4]; 0.1% topical, −180 min (basal)) | Clinical score expressed as percentage of eyes, Score (%) 0 ([4]; 0.5% topical, −5 min) | Clinical score expressed as percentage of eyes, Score (%) 0 ([4]; 0.5% topical, −180 min (basal)) | Diameter (mm) T2: −5 min ([5]; 0.1% topical) | Diameter (mm) T3: +115 min ([5]; 0.1% topical) | Diameter (mm) T1: −180 min ([5]; 0.1% topical) | Diameter (mm) T2: −5 min ([5]; 0.5% topical) | Diameter (mm) T3: +115 min ([5]; 0.5% topical) | Diameter (mm) T1: −180 min ([5]; 0.5% topical) | further results
CCCCCC=CC=C1C(=O)C=C[C@@H]1CC=CCCCC(=O)O [15-deoxy-Δ-12,14-prostaglandin J2] | – | – | – | – | – | – | – | – | – | – | – | Neovascularization and angiogenesis in the rat cornea [1]: inhibit neovascularization and angiogenesis
Cc1ccc2c(NCC(O)(CC(C)(C)c3cc(F)cc4c3OCC4)C(F)(F)F)cccc2n1 (centres unmarked) [BOL] | 25% | 100% | 100% | 100% | 100% | 6.5 mm and 7.0 mm and 7.5 mm | 5.0 mm and 6.0 mm and 6.5 mm and 5.5 mm | 6.5 mm and 7.0 mm and 7.5 mm | 8.0 mm and 7.0 mm and 7.5 mm | 6.5 mm and 6.0 mm and 7.0 mm | 8.0 mm and 7.0 mm and 7.5 mm | MPO ([2]; 0.1% treatment): 1.00 Unit/g and 0.61 Unit/g and 0.65 Unit/g; MPO ([2]; 0.5% treatment): 0.85 Unit/g and 0.93 Unit/g and 0.79 Unit/g and 0.75 Unit/g and 0.74 Unit/g and 0.54 Unit/g and 0.58 Unit/g; Anti-inflammatory activity in the rabbit paracentesis model (conclusion) [3]: active in this model; also recorded: as effective an anti-inflammatory drug as some of the commonly accepted prior-art steroids or NSAID; Clinical score expressed as percentage of eyes, Score (%) 2 ([4]; 0.1% topical, +115 min): 75%; Clinical score expressed as percentage of eyes, Score (%) 2 ([4]; 1% topical, +115 min): 100%; Clinical score expressed as percentage of eyes, Score (%) 0 ([4]; 1% topical, −5 min): 100%; Clinical score expressed as percentage of eyes, Score (%) 0 ([4]; 1% topical, −180 min (basal)): 100%; Diameter (mm) T2: −5 min ([5]; 1% topical): 6.0 mm and 6.5 mm and 7.0 mm; Diameter (mm) T3: +115 min ([5]; 1% topical): 5.5 mm and 5.0 mm and 6.0 mm; Diameter (mm) T1: −180 min ([5]; 1% topical): 6.0 mm and 6.5 mm; Side effects of corticosteroids [6]: does not have some of the side effects of corticosteroids
C[C@@H]1C[C@H]2[C@@H]3CCC4=CC(=O)C=C[C@]4(C)[C@@]3(F)[C@@H](O)C[C@]2(C)[C@@]1(O)C(=O)CO [Dex, dexamethasone] | 25% | 75% | 100% | – | – | 5.5 mm and 6.5 mm and 6.0 mm and 7.0 mm and 7.5 mm | 5.5 mm and 6.0 mm and 4.5 mm and 5.0 mm and 6.5 mm | 6.0 mm and 7.0 mm and 5.5 mm and 6.5 mm | – | – | – | Clinical score expressed as percentage of eyes, Score (%) 1 ([4]; 0.1% topical, +115 min): 75%; Clinical score expressed as percentage of eyes, Score (%) 1 ([4]; 0.1% topical, −5 min): 25%
CC(C(=O)O)c1ccc(-c2ccccc2)c(F)c1 (centres unmarked) [F, flurbiprofen] | – | – | – | – | – | – | – | – | – | – | – | Clinical score expressed as percentage of eyes, Score (%) 2 ([4]; 0.03% topical, +115 min): 100%; Clinical score expressed as percentage of eyes, Score (%) 0 ([4]; 0.03% topical, −5 min): 100%; Clinical score expressed as percentage of eyes, Score (%) 0 ([4]; 0.03% topical, −180 min (basal)): 100%; Diameter (mm) T2: −5 min ([5]; 0.03% topical): 6.0 mm and 6.5 mm and 7.0 mm and 5.5 mm; Diameter (mm) T3: +115 min ([5]; 0.03% topical): 4.0 mm and 3.5 mm and 5.5 mm and 5.0 mm and 4.5 mm and 6.0 mm; Diameter (mm) T1: −180 min ([5]; 0.03% topical): 5.0 mm and 7.0 mm and 6.0 mm and 5.5 mm
CCOC(=O)O[C@]1(C(=O)OCCl)CC[C@H]2[C@@H]3CCC4=CC(=O)C=C[C@]4(C)[C@H]3[C@@H](O)C[C@@]21C [LE, loteprednol etabonate] | – | – | – | 100% | 100% | – | – | – | 6.0 mm and 6.5 mm | 4.5 mm and 5.0 mm and 5.5 mm and 6.0 mm | 6.0 mm and 6.5 mm | Clinical score expressed as percentage of eyes, Score (%) 1 ([4]; 0.5% topical, +115 min): 75%; Clinical score expressed as percentage of eyes, Score (%) 2 ([4]; 0.5% topical, +115 min): 25%
